In US6521632B2, “Method for the treatment or prevention of a disease mediated by the alpha-2B-adrenoceptor” (Oy Juvantia Pharma LTD, priority 2000, dated 2003):

Tests used:
human α2A-adrenoceptor [1] = target: T1, human α2A-adrenoceptor (Homo sapiens, UniProt P08913); assay: Inhibition of epinephrine-stimulated 35S-GTPγS binding, human alpha-2A; type: biochemical; details: Mean ± SEM, n minimum three; CHO cell membranes; epinephrine 5 μM; incomplete dose-response curves, KB numbers are minimum estimates; read-out: Antagonist effect KB alpha-2A
T1 sequence (P08913 1-465): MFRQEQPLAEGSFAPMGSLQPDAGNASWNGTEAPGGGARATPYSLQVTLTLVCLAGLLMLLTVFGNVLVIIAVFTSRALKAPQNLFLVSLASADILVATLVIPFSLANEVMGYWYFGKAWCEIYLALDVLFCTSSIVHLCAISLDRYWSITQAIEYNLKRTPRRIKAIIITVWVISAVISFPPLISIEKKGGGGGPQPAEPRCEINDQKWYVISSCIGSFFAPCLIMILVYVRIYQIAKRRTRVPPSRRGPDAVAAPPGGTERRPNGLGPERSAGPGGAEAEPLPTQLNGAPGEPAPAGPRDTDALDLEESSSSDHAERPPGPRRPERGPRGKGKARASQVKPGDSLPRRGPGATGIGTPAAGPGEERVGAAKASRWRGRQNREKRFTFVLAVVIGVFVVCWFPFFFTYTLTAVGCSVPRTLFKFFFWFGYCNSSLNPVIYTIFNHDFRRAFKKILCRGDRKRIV
Experimental: (§1) Antagonist Activity on Human a2-adrenoceptor Subtypes
(§2) Membranes (2-6 μg of protein per samnple) and 12 concentrations of test compound were preincubated for 30 min with a fixed concentration fo epinephrine (5 μM for α2A, 15 μM for α2B, 5 μM for α2C) in 50 mM Tris, 5 mM MgCl2, 150 mM NaCl, 1 mM DTT,
(§3) 1 mM EDTA, 10 μuM GDP, 30 μM ascoerbic acid, pH 7.4 at room temperature. Binding of radiolabel was started by the addition of trace amounts of ^35S-GTPγS (0.08 nM-0.15 nM, specific activity 1250 Ci/mmol) to the incubation mixture. After an additional 60 min at room temperature, the incubation was terminated by rapid vacuum filtration through glass fiber filter. Filters were washed three times with 5 ml icecold wash buffer (20 mM Tris, 5 mM MgCl2, 1 mM EDTA pH 7.4 at room temperature), dried and counted for radioactivity in a scintiallation counter. Analysis of experiments was carried out by nonlinear least square fitting. Experiments were repeated at least three times.

human α2B-adrenoceptor [2] = target: T2, human α2B-adrenoceptor (Homo sapiens, UniProt P18089); assay: Inhibition of epinephrine-stimulated 35S-GTPγS binding, human alpha-2B; type: biochemical; details: Mean ± SEM, n minimum three; CHO cell membranes; epinephrine 15 μM; read-out: Antagonist effect KB alpha-2B
T2 sequence (P18089 1-450): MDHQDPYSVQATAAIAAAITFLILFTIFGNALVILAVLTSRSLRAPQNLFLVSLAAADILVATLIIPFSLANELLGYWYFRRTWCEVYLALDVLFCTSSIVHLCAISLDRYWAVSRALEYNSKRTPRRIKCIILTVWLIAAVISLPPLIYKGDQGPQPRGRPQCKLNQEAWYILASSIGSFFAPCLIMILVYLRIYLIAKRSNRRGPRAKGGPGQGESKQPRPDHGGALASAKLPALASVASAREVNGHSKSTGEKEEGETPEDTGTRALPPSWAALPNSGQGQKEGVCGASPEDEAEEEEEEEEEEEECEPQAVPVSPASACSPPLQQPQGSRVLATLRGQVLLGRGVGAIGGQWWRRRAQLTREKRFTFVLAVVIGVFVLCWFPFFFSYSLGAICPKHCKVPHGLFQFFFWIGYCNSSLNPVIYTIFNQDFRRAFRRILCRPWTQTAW
Experimental: as §1, §2, §3

human α2C-adrenoceptor [3] = target: T3, human α2C-adrenoceptor (Homo sapiens, UniProt P18825); assay: Inhibition of epinephrine-stimulated 35S-GTPγS binding, human alpha-2C; type: biochemical; details: Mean ± SEM, n minimum three; CHO cell membranes; epinephrine 5 μM; incomplete dose-response curves, KB numbers are minimum estimates; read-out: Antagonist effect KB alpha-2C
T3 sequence (P18825 1-462): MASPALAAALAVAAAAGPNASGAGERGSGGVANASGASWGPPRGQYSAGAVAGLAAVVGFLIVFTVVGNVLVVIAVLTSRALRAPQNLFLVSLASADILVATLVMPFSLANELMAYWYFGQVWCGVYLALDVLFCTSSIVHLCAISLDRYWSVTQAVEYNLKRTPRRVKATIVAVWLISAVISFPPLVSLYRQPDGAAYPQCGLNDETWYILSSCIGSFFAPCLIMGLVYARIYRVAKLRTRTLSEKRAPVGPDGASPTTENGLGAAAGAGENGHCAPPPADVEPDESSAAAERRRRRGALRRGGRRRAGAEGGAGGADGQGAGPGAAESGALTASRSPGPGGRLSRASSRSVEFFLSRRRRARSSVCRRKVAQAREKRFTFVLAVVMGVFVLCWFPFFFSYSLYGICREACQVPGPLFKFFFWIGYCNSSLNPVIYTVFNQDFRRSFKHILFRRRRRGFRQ
Experimental: as §1, §2, §3

human α2A-adrenoceptor [4] = target: T1, human α2A-adrenoceptor; assay: Competition binding with 3H-rauwolscine, human alpha-2A; design: expressed in transfected cells; host or cells: Shionogi S115 cells (membranes); details: Mean ± SEM, n = 3 unless indicated, membranes of Shionogi S115 cells, read-out: Binding affinity Ki alpha-2A
Experimental: (§4) Binding Affinity Human Alpha-2-adrenoceptor
(§5) The affinity of test compounds for the three human α2-adrenoceptor subtypes (α2A, α2B and α2C) was determined in competition binding assays with ^3H-rauwolscine. The biological material for these experiments consisted of membranes from Shionogi S115 cells stably transfected with either of the three human α2 subtypes (Marjarnaki et al. 1992). Membrane (5-10 μg of total protein per sample) and 1 nM-2 nM ^3H-rauwolscine (specific activity 78 Ci/mrnmol) were incubated in 50 mM KH2PO4, pH 7.5 with 6 concentrations of the compounds. Each concentration was run in duplicate. Nonspecific binding was defined by 100 μM oxymetazoline and corresponded to 5-15% of total binding. After 30 mim at room temperature, incubations were terminated by rapid vacuum filtration through GF/B glass fiber filter and three 5 ml washes with icecold incubation buffer. The filters were then dried, impregnated with scintillate and their radioactivity was measured by scintillation counting. The analysis of the experiments was carried out by nonlineair least square curve fitting. Experimentally determined IC50 values were converted to Ki's by making use of the Cheng-Prusoff equation (Cheng and Prusoff, 1973). Experiments were repeated a minimum of three times.

human α2B-adrenoceptor [5] = target: T2, human α2B-adrenoceptor; assay: Competition binding with 3H-rauwolscine, human alpha-2B; design: expressed in transfected cells; host or cells: Shionogi S115 cells (membranes); details: Mean ± SEM, n = 3 unless indicated, membranes of Shionogi S115 cells, read-out: Binding affinity Ki alpha-2B
Experimental: as §4, §5

human α2C-adrenoceptor [6] = target: T3, human α2C-adrenoceptor; assay: Competition binding with 3H-rauwolscine, human alpha-2C; design: expressed in transfected cells; host or cells: Shionogi S115 cells (membranes); details: Mean ± SEM, n = 3 unless indicated, membranes of Shionogi S115 cells, read-out: Binding affinity Ki alpha-2C
Experimental: as §4, §5

[7] = target: rat neocortical α1-adrenoceptors; assay: Competition binding with 3H-prazosin, rat neocortex membranes; details: concentrations of up to 30 μM
Experimental: Binding Affinity Rat Cortical α1-adrenoceptor
The affinity for rat neocortical α1-adrenoceptors was determined in competition binding assays with ^3H-prazosin. The biological material for these assays consisted of membranes from rat neocortex. Membrane suspensions (100-200 μg of total protein per sample) and 0.2 nM-0.25 nM of ^3H-prazosin (specific activity 74 Ci/mmol) were incubated with 6 concentrations of compounds in a total volume of 0.25 ml (50 mM Tris pH 7.7 at 25° C). Each concentration was run in duplicate. Nonspecific binding was defined by 10 μM phentolamine methanesulfonate and corresponded to 25-30% of total binding. After 30 min at room temperature, incubations was terminated by rapid filtration through GF/B glass-fiber filter mats and three washes with ice-cold 10 mM Tris (pH 7.7 at 4° C.). After drying, a solid scintillate was melted onto the filter mats, and their radioactivity was measured by scintillation counting.

Cc1cc(C)nc(NS(=O)(=O)c2ccc(NCc3nc4ccccc4n3C)cc2)n1 [B]
Kb (human α2A-adrenoceptor [1]): > 10 µM
Kb (human α2B-adrenoceptor [2]): 0.25 ± 0.08 µM
Kb (human α2C-adrenoceptor [3]): > 10 µM
Ki (human α2A-adrenoceptor [4]): > 30 µM
Ki (human α2B-adrenoceptor [5]): 0.215 ± 0.06 µM
Ki (human α2C-adrenoceptor [6]): > 30 µM

Cc1cc(C)nc(NS(=O)(=O)c2ccc(NC(=O)COc3ccccc3)cc2)n1 [E]
Ki (human α2A-adrenoceptor [4]): > 100 µM
Ki (human α2B-adrenoceptor [5]): 2.9 ± 0.3 µM
Ki (human α2C-adrenoceptor [6]): > 100 µM

CCOc1ccc(C(=O)Nc2ccc(S(=O)(=O)Nc3nc(C)cc(C)n3)cc2)cc1 [C]
Ki (human α2A-adrenoceptor [4]): > 30 µM
Ki (human α2B-adrenoceptor [5]): 1.86 µM
Ki (human α2C-adrenoceptor [6]): > 30 µM

CCn1c(CNc2ccc(S(=O)(=O)Nc3nc(C)cc(C)n3)cc2)nc2ccccc21 [A]
IC50 ([7]; read-out: IC50, displacement of 3H-prazosin): > 30 µM
Ki ([7]; read-out: Ki, displacement of 3H-prazosin): > 30 µM
Kb (human α2A-adrenoceptor [1]): 2.4 ± 0.7 µM
Kb (human α2B-adrenoceptor [2]): 0.073 ± 0.023 µM
Kb (human α2C-adrenoceptor [3]): 2.4 ± 0.9 µM
Ki (human α2A-adrenoceptor [4]): 4.1 ± 0.2 µM
Ki (human α2B-adrenoceptor [5]): 0.03 ± 0.004 µM
Ki (human α2C-adrenoceptor [6]): > 4.7 µM

Cc1cc(C)nc(NS(=O)(=O)c2ccc(NC(=O)/C=C/c3ccc(F)cc3)cc2)n1 [D]
Ki (human α2A-adrenoceptor [4]): > 30 µM
Ki (human α2B-adrenoceptor [5]): 0.53 ± 0.09 µM
Ki (human α2C-adrenoceptor [6]): > 30 µM
